System: leptin
Assay: Plasma marker leptin in diet-induced obese mice (Example 10)
Assay type: in vivo, C57BL/6 mice
Conditions: 1 mg/kg/day oral gavage, end of study vs prior, FIG. 15
Method: Mice were divided into four groups, a diet-induced obese group administered fumagillin at 1 mg/kg/day (oral gavage as a solution in 0.25% DMSO), a Pair-fed group, a caloric restriction group, and a diet-induced obese group. For the diet-induced obese groups, C57BL/6 mice were maintained prior to and during the study on a diet containing 42% fat on a kilocalorie basis. Plasma markers were measured prior to and at the end of the study.

CO[C@@H]1[C@H](OC(=O)/C=C/C=C/C=C/C=C/C(=O)O)CC[C@]2(CO2)[C@H]1[C@@]1(C)O[C@@H]1CC=C(C)C [fumagillin] was tested, and the leptin levels was “reduced”.

Reference: patent US9925166B2, “Methods of treating an overweight or obese subject” (Zafgen, Inc., priority 2008, dated 2018)
